Assay results: BindingDB's records for PubMed 34146913 (National Institute of Pharmaceutical Education and Research …, 2021)

Tests used:
[1] = Inhibition of DC-SIGN extracellular domain (unknown origin) by SPR analysis
[2] = Inhibition of DC-SIGN extracellular domain (unknown origin) expressed in Escherichia coli DE3(BL21) incubated for 1 hrs in presence of Man-Fl-BSA by high-throughput fluorescence-based assay

With `O=C(NCCc1c[nH]c2ccccc12)c1c(O)nc2sccn2c1=O` as the compound, how does the Kd [1] read?
The Kd was 180 µM.

For `N=c1c(C(=O)NCCc2cn3c(n2)SCC3)cnc2sccn12`, which Kd [1] is on record?
The Kd was 400 µM.

For `O=C1Nc2cc(C(=O)N3CCN(c4ccccc4)CC3)ccc2NC1CSCc1c(F)cccc1Cl` (centres undefined), which IC50 [2] is on record?
The IC50 was 7.3 µM.

Which IC50 [2] does the source give for `COC(=O)c1ccc(-c2ccc(/C=C3\C(=O)N(c4ccc(S(N)(=O)=O)cc4)N=C3C(F)(F)F)o2)cc1` here?
The IC50 was 32 µM.

Which IC50 [2] does the source give for `Cc1ccc(N(C)S(=O)(=O)c2ccc3[nH]cc(C(=O)N4CCN(c5ccccc5)CC4)c(=O)c3c2)cc1C` here?
Its IC50 is 6.1 µM.

With `CN1CCN(c2ccc(/C=C3\Sc4ccccc4C3=O)cc2[N+](=O)[O-])CC1` as the compound, how does the IC50 [2] read?
The IC50 was 10 µM.

For `CCC(=O)Nc1nc(C)c(-c2csc(Nc3ccc(N(C)C)cc3)n2)s1`, which IC50 [2] is on record?
Its IC50 is 1.6 µM.

For `NOC(=O)c1ccc(CCCC2Nc3ccc(C(=O)N4CCN(c5ncccn5)CC4)cc3NC2=O)cc1` (centres undefined), which IC50 [2] is on record?
Its IC50 is 2.6 µM.

For `COc1ccccc1N1CCN(C(=O)c2ccc3c(c2)NC(=O)C(CCCc2ccccc2C)N3)CC1` (centres undefined), which IC50 [2] is on record?
The IC50 was 4.4 µM.
